Assay results published in PMC3615092, “Identification, Design and Bio-Evaluation of Novel Hsp90 Inhibitors by Ligand-Based Virtual Screening” (PLoS ONE, 2013).
Where two headings read alike, the source gives them in different places.

How the values were obtained:
[1] = molecular target: T1, Hsp90 (Homo sapiens, UniProt P07900); experiment: Malachite green assay of Hsp90 ATPase activity; type: biochemical; conditions: for inhibition at 40 µM: read-out: Inhibition rate (% in 40 μM); for IC50: by malachite green assay
T1 construct: The region encoding full-length Hsp90 was subcloned into pET28a; inferred from the pET28a vector and Ni-NTA purification; made in house; host or cells: E. coli
Description: The region encoding full-length Hsp90 was subcloned into pET28a. Protein expression in E. coli cells were induced with 0.5 mM IPTG. Cells were harvested after 20h of growth at 16°C and then disrupted by sonication. The soluble lysate was clarified by centrifugation and applied to a Ni^2+-nitrilo-triacetic acid (NTA) agarose column in a buffer (50 mM Tris-Cl, 300 mM NaCl, 10 mM Imidazole, 10% [v/v] Glycerol, 10 mM PMSF, 10 mM DTT). Hsp90 Protein was eluted with a linear gradient of 20–1000 mM imidazole. Hsp90 was identified by SDS-PAGE, and the high concentrated fraction was dialyzed against ATPase buffer (20 mM Tris-Cl, pH 7.5; 6 mM MgCl2; 20 mM KCl) and then aliquoted, frozen in liquid nitrogen, stored at −80°C.
The test compounds were diluted from mother plates (10 mM in 100% (v/v) DMSO) into daughter plates (200 μM in 2.0% (v/v) DMSO); 5 μL of test compound solution was added to each well (equivalent to a final concentration of 40 μM) of the 96-well assay plate. The first and last rows of the 96-well plate contained the appropriate concentration of DMSO were used as blank control. ATP was dissolved in the assay buffer to give a stock concentration of 2.5 mM and stored at room temperature. A 10 μL aliquot of ATP solution was added to each well to give a final assay concentration of 1 mM. Before the usage, Hsp90 protein was thawed on ice and suspended in chilled assay buffer to a stock concentration of 0.45 mg/mL, and the solution was kept on ice. The incubation was started by adding 10 μL of the stock Hsp90 to each well (except for the background wells which received 10 μL of assay buffer), giving a final assay volume of 25 μL. The plates were shaken for approximately 2 min and incubated for 3 h at 37°C.
The assay procedures were based on the literatures [33]–[35]. […] The reagent is initially dark brown, but on standing for ∼2 h at room temperature changes to a golden yellow and is ready for use. The assay buffer was 100 mM Tris–HCl, 20 mM KCl, 6 mM MgCl2, pH 7.4.
To stop the ATPase reactions, 80 μL of the malachite green reagent was added to each well.

[2] = tested on: A549; experiment: Anti-proliferation MTT assay; type: cell-based
Description: (§1) Cell viabilities were measured by a colorimetric assay using 3-(4, 5-dimethylthiaz-ol-2-yl)-2,5-diphenyltetrazoliumbromide (MTT, Sigma, Ltd.) as described previously. Experiments were carried out in triplicate in a parallel manner for each concentration of target compounds and the results were presented as mean ± SE. Control cells were given only culture media. After incubation for 48 h, absorbance (A) was measured at 570 nm. Survival ratio (%) was calculated using the following equation: survival ratio (%) = (Atreatment/Acontrol) × 100%.

[3] = tested on: HCT116; experiment: Anti-proliferation MTT assay; type: cell-based
Description: as §1

[4] = tested on: HepG2; experiment: Anti-proliferation MTT assay; type: cell-based
Description: as §1

[5] = tested on: MCF-7; experiment: Anti-proliferation MTT assay; type: cell-based
Description: as §1

[6] = tested on: MDA-MB-231; experiment: Anti-proliferation MTT assay; type: cell-based
Description: as §1

[7] = tested on: SK-BR-3; experiment: Anti-proliferation MTT assay; type: cell-based
Description: as §1

[8] = molecular target: T1, Hsp90; experiment: ATP hydrolysis inhibition, ADP Hunter Plus (ADP fluorescence) assay; type: biochemical; conditions: by ADP fluorescence assay
Description: The first and last rows of the 96-well plate contained the appropriate concentration of DMSO were used as blank control. ATP was dissolved in the assay buffer to give a stock concentration of 2.5 mM and stored at room temperature. A 10 μL aliquot of ATP solution was added to each well to give a final assay concentration of 1 mM. Before the usage, Hsp90 protein was thawed on ice and suspended in chilled assay buffer to a stock concentration of 0.45 mg/mL, and the solution was kept on ice. […] The plates were shaken for approximately 2 min and incubated for 3 h at 37°C. The Discover RX ADP Hunter^TM Plus Assay kit (Discoverx, Fremont, CA) was used following the manufacturer's instructions. ATPase reactions were carried out after 3 h at 37°C temperature in presence of different concentrations of compounds. ADP generation was measured using Varioskan multimode microplate spectrophotometer (540 nm excitation and 620 nm emission). […] The background reaction rate was measured in a reaction lacking enzyme or substrate and subtracted from the experimental rates.

[9] = molecular target: T2, Hsp70 (Homo sapiens, UniProt P0DMV8); experiment: Hsp70 ATPase activity assay (ADP Hunter Plus); type: biochemical; conditions: for IC50: ADP Hunter Plus assay; for selectivity HSP90 over HSP70: ratio of IC50 HSP70 / HSP90, ADP fluorescence assay
T2 construct: purchased Enzo Life science ALX-201-214-C025
T2 sequence (P0DMV8 whole entry): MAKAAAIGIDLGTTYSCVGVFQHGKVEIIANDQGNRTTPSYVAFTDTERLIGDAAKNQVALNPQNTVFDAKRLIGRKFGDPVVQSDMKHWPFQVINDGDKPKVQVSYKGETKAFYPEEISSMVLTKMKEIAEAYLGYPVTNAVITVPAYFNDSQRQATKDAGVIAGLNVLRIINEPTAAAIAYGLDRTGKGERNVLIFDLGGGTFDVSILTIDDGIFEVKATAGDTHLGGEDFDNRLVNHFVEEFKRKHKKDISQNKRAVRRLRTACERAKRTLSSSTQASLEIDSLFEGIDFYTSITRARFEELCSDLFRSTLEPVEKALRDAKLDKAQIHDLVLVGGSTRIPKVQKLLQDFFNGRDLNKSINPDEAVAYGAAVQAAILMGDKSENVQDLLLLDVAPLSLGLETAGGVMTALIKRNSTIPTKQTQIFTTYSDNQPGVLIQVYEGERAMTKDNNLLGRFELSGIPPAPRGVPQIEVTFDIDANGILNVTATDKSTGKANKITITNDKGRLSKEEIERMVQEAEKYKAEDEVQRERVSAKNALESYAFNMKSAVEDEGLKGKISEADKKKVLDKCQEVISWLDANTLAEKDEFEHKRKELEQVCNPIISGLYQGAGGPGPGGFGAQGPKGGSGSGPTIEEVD
From the text: The following materials were used for the biological evaluation: The PET-28a HSP90 expression vector was constructed. The Ni^2+-nitrilo-triacetic acid (NTA) agarose was purchased from General Electric (USA). […] Isopropyl-1-thio-d-galactopyranoside (IPTG) was purchased from Sigma (St. Lousi. MO). Antibodies of β-Actin, Hsp70, Hsp90, c-Raf, Akt, Src, Phospho-Src, ERK and Her-2 were purchased from Cell Signaling Technology (Danvers, MA). Anti-p-Akt(S473) was purchased from Signalway Antibody (Baltimore, MD). HIF-1α antibody was purchased from R&D systems. The stock solution of Hsp90 was prepared in a 20 mM Tris-Cl buffer with a pH 7.4, and concentration was fixed at 5.0 μM. […] The screened out compounds were purchased from SPECS and dissolved in DMSO (Sigma, St. Louis, MO) to make a final concentration of 10^−2 mol/L and were stored at −20°C. […] The water used in the experiments was thrice-distilled and all other materials were of analytical reagent grade.
Hsp70 ATPase activity was measured using Discover RX ADP Hunter^TM Plus Assay kit assay as descripted in the manufacturer's instructions. Breifly, Hsp70 (3 μM) was incubated with 1 mM ATP in 100 mM Tris pH 7.4 at 37°C for 3 h in the presence or absence of various concentrations of test compounds. ADP generation was measured using Varioskan multimode microplate spectrophotometer (540 nm excitation and 620 nm emission). Fluorescence intensity values measured for Hsp70 without any testing compound was assumed as 100% of enzyme activity. The background reaction rate was measured in a reaction lacking enzyme or substrate and subtracted from the experimental rates.

[10] = 40 μM, colorimetric assay for inorganic phosphate
[11] = colorimetric assay for inorganic phosphate, 40 μM

Structure (SMILES): COCCN1C(=O)C(O)=C(C(=O)c2ccc3c(c2)CC(C)O3)C1c1cccc(OC)c1 (stereo not shown) [Compound S17]
- inhibition at 40 µM [1, 10]: 48.8%
- Hsp90 inhibition activity (in words) [1, 11]: moderate

Structure (SMILES): COc1ccc(CNC(=O)CSc2nc3ccc(N)cc3s2)cc1 [Compound S3]
- inhibition at 40 µM [1, 10]: -11.6%

Structure (SMILES): CCOC(=O)C1=C(Nc2ccc(OC)cc2)S/C(=C\c2ccc[nH]2)C1=O [Compound S12]
- inhibition at 40 µM [1, 10]: 12.6%

Structure (SMILES): Cc1cccc(OCCn2c(SCC(O)CO)nc3ccccc32)c1 (stereo not shown) [Compound S15]
- inhibition at 40 µM [1, 10]: 18.9%

Structure (SMILES): O=C(NNC1CC(=O)N(c2ccc(Br)cc2)C1=O)c1cccnc1 (stereo not shown) [Compound S7]
- inhibition at 40 µM [1, 10]: -35.1%

Structure (SMILES): CCCOc1ccc(C(=O)C2=C(O)C(=O)N(Cc3cccnc3)C2c2ccccc2)cc1 (stereo not shown) [Compound S5]
- inhibition at 40 µM [1, 10]: -14.5%

Structure (SMILES): Cc1ccc(S(=O)(=O)N2CCN(CC(O)COc3ccc(-c4ccccc4)cc3)CC2)cc1C (stereo not shown) [Compound S14]
- inhibition at 40 µM [1, 10]: 47.5%
- Hsp90 inhibition activity (in words) [1, 11]: moderate

Structure (SMILES): COCCCN1C(=O)C(O)=C(C(=O)c2ccc(OC(C)C)c(C)c2)C1c1cccnc1 (stereo not shown) [Compound S4]
- inhibition at 40 µM [1, 10]: 48.2%
- Hsp90 inhibition activity (in words) [1, 11]: moderate

Structure (SMILES): CCOc1ccc(-c2csc3ncn(CC(=O)Nc4cc(C)ccc4C)c(=O)c23)cc1 [Compound S10]
- inhibition at 40 µM [1, 10]: 36%

Structure (SMILES): CO[C@H]1/C=C\C=C(/C)C(=O)NC2=CC(=O)C(NCCN(C)C)=C(C[C@@H](C)C[C@H](OC)[C@H](O)[C@@H](C)/C=C(\C)[C@@H]1OC(N)=O)C2=O [Compound 17-DMAG, 17-Dimethylamino-ethylamino-17-demethoxygeldanamycin]
- Inhibition rate (% in 40 μM) [1, 10]: 90%
- IC50 ([2]; 48 h): 0.057 µM
- IC50 ([3]; 48 h): 0.26 µM
- IC50 ([4]; 48 h): 0.49 µM
- IC50 ([5]; 48 h): 0.037 µM
- IC50 ([6]; 48 h): 0.048 µM
- IC50 ([7]; 48 h): 1.21 µM

Structure (SMILES): COc1ccc(-c2csc3ncn(CC(=O)Nc4ccc(C)cc4C)c(=O)c23)cc1OC [Compound S9]
- inhibition at 40 µM [1, 10]: -47.8%

Structure (SMILES): CCCCCOc1cccc(C2C(C(=O)c3cccs3)=C(O)C(=O)N2CCN2CCOCC2)c1 (stereo not shown) [Compound S6]
- inhibition at 40 µM [1, 10]: -7.53%

Structure (SMILES): CC(C)c1cc(C(=O)N2Cc3ccc(CN4CCN(C)CC4)cc3C2)c(O)cc1O [AT13387]
- IC50 [1]: 0.37 ± 0.05 µM
- IC50 [8]: 0.34 ± 0.08 µM
- IC50 [9]: 16.3 ± 1.2 µM
- selectivity HSP90 over HSP70 [9]: over 47 times

Structure (SMILES): CN(C)S(=O)(=O)N1CCN(CC(O)COc2ccc3cc(Br)ccc3c2)CC1 (stereo not shown) [Compound S1]
- inhibition at 40 µM [1, 10]: > 50%
- IC50 [1]: 2.44 ± 0.33 µM
- IC50 [8]: 1.61 µM
- IC50 [9]: 28.2 ± 2.27 µM
- selectivity HSP90 over HSP70 [9]: over 15 times
- IC50 ([2]; Homo sapiens, A549, 48 h): 25.9 µM
- IC50 ([3]; Homo sapiens, HCT-116, 48 h): 4.66 µM
- IC50 ([4]; Homo sapiens, HepG2, 48 h): 2.27 µM
- IC50 ([5]; Homo sapiens, MCF7, 48 h): 3.79 µM
- IC50 ([6]; Homo sapiens, MDA-MB-231, 48 h): 2.27 µM
- IC50 ([7]; Homo sapiens, SK-BR-3, 48 h): 15.8 µM

Structure (SMILES): CCOC(=O)c1c(C)n(CCOc2cccc3ccccc23)c2ccc(O)cc12 [Compound S2]
- inhibition at 40 µM [1]: -10.2%

Structure (SMILES): COc1cccc(CNc2nc(SC)ncc2CO)c1 [Compound S16]
- inhibition at 40 µM [1, 10]: -6.22%

Structure (SMILES): COc1ccc(-c2csc3ncn(CC(=O)NC4CCCCC4)c(=O)c23)cc1OC [Compound S11]
- inhibition at 40 µM [1, 10]: 42.8%
- Hsp90 inhibition activity (in words) [1, 11]: moderate
